We go through 20 molecules from patent publication US11524945B2, “Compounds for treating ILK-mediated diseases” (The Cleveland Clinic Foundation, priority 2018, dated 2022).

Converted amounts (≈) assume the structure as drawn. Where two headings read alike, the source gives them in different places.

Data set [1] concerns the target CYP 2A6 (Homo sapiens (Human), UniProt P11509). Description: CYP inhibition in human liver microsomes, 2A6. It is filed as in vitro ADME.
Data set [2] concerns the target purified recombinant ILK (Homo sapiens (Human), UniProt Q13418). The experiment in a line: ILK binding affinity, EnSpire fluorescence intensity. The conditions noted are these: for binding to purified ILK: fluorescence-based method; for Binding Difference ILK (Kd)/EGFR (Kd) / Kd: EnSpire fluorescence intensity; for Kd: read-out: ILK - Binding affinity.
A short description of data set [3]: Stability in PBS at pH 7.4. It is filed as physicochemical.
The nature of data set [4]: Stability in SIF. It is filed as physicochemical.
For data set [5], the target named is EGFR (Homo sapiens (Human), UniProt P00533). The experiment in a line: EGFR binding affinity, Nanotemper.
In data set [6] the target is ILK (Homo sapiens (Human), UniProt Q13418). The experiment in a line: ILK binding affinity, Nanotemper.
Data set [7] concerns HepG2 cells. Description: Mitochondrial toxicity in HepG2 cells. It is filed as cell-based. As to conditions: HepG2 cells; for Fold change in IC50: Glucose vs Galactose; for IC50: Homo sapiens.
Data set [8] is described as follows: Permeability in Caco2 cell line. It is filed as in vitro ADME. The conditions noted are these: human; for efflux ratio / Papp A→B / Papp B→A: Caco-2; for efflux ratio: Caco2; for Papp A→B: Caco2, A-B; for Papp B→A: Caco2, B-A. For orientation: Caco-2 monolayers are a common model of the intestinal barrier.
Data set [9] is described as follows: Protein binding in mouse plasma. It is filed as in vitro ADME.
The nature of data set [10]: Protein binding in human plasma. It is filed as in vitro ADME.
The nature of data set [11]: Protein binding in rat plasma. It is filed as in vitro ADME.
Data set [12] can be described thus: Stability in rat plasma. It is filed as in vitro ADME.
Data set [13] in a line: Solubility in PBS at pH 7.4. It is filed as physicochemical. As to conditions: aqueous buffer.
Data set [14] in a line: Stability in human plasma. It is filed as in vitro ADME.
Data set [15] can be described thus: Stability in mouse plasma. It is filed as in vitro ADME.
Data set [16] has as its target CYP 2C8 (Homo sapiens (Human), UniProt P10632). Description: CYP inhibition in human liver microsomes, 2C8. It is filed as in vitro ADME. For orientation: Liver microsomes are a subcellular fraction often used to study metabolism.
Where [17] appears, read: Nanotemper, read-out: EGFR - Binding affinity.
Setting [18] is: Nanotemper, read-out: ILK - Binding affinity.
Setting [19] is: Galactose, read-out: IC50 (μM)_Galactose.
[20] abbreviates: Glucose, read-out: IC50 (μM)_Glucose.
The mark [21] stands for this setting: Caco-2, Caco2, AP-BL, read-out: Recovery (%)AP-BL.
Where [22] appears, read: Caco-2, Caco2, BL-AP, read-out: Recovery (%)BL-AP.

Chain of EGFR (P00533 25-1210): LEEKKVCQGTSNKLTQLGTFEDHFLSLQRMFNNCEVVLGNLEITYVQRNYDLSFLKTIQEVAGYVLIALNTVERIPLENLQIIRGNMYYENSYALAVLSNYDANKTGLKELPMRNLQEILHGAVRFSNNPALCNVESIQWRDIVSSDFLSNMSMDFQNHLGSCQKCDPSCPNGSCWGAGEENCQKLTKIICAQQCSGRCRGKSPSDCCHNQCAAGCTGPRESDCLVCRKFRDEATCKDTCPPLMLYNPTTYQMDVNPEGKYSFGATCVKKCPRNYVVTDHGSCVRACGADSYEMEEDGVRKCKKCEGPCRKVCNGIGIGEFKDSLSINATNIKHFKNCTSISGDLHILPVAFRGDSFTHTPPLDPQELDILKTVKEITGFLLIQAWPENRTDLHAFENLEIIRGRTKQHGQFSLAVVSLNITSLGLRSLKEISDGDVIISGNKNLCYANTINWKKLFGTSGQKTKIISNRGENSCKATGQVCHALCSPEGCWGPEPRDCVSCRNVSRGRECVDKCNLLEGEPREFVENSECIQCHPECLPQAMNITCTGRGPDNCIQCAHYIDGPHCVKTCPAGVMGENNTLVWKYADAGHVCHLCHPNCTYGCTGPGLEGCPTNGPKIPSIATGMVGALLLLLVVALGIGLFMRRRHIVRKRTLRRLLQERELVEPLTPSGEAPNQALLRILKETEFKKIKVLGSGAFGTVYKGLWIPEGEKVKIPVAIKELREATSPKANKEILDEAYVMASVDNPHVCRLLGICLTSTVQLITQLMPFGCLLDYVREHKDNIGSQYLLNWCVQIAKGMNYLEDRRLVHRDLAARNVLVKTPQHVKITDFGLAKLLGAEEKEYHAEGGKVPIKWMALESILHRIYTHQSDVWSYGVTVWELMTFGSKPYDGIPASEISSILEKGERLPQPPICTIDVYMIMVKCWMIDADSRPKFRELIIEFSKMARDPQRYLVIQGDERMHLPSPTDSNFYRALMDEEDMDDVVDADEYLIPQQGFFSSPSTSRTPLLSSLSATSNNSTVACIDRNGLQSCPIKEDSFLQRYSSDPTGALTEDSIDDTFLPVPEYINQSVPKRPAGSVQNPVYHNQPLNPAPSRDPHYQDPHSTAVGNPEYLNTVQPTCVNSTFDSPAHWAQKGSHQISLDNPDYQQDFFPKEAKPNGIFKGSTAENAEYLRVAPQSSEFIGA
Chain of ILK (Q13418 whole entry): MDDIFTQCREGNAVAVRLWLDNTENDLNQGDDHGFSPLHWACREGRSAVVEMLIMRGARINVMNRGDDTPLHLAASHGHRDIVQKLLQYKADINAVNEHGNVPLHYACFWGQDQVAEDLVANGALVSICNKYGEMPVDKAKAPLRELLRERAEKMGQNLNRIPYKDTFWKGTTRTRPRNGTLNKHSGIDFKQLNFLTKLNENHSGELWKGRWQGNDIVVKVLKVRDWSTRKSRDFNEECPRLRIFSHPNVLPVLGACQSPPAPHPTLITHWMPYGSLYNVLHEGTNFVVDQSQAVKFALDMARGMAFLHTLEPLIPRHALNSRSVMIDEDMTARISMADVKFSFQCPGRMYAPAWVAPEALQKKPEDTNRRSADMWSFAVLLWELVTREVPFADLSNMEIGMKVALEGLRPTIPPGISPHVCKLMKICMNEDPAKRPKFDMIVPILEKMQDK
Chain of purified recombinant ILK (Q13418 whole entry): as above
Chain of CYP 2A6 (P11509 whole entry): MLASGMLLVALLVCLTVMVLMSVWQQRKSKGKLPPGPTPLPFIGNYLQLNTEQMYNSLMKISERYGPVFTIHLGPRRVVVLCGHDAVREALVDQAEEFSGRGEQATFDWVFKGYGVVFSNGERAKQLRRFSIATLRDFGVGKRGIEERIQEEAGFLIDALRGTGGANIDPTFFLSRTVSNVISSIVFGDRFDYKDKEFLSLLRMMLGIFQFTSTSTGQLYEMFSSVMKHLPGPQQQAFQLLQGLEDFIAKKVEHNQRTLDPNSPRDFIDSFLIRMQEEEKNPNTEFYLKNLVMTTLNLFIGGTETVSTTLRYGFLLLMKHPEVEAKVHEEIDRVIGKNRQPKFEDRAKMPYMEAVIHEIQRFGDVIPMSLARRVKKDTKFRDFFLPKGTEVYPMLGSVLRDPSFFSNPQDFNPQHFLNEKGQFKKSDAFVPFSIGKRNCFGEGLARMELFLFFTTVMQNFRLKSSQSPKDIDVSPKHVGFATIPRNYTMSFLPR
Chain of CYP 2C8 (P10632 whole entry): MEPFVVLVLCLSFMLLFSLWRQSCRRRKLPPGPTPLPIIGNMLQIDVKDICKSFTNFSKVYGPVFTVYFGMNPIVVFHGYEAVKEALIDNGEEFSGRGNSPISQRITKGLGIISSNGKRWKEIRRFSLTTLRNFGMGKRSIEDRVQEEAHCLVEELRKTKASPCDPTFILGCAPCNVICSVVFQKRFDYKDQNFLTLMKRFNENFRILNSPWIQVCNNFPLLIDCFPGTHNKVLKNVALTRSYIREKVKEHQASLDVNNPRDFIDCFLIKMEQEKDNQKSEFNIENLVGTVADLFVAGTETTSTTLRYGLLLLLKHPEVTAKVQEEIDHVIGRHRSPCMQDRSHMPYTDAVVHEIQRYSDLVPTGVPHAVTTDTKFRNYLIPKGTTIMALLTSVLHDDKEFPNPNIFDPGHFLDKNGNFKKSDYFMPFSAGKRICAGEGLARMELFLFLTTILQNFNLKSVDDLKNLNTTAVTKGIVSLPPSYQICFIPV

Usually IC50 stands for the concentration that inhibits the measured activity by half. Consider `N[C@@H]1C[C@H]1c1ccccc1` (racemic) [Tranylcypromine, reference compound], for which inhibition in data set [1] was half-maximal at 0.69 µM (IC50).
As to `CN1Cc2c(ccc3c2OCO3)C2C(O)Cc3cc4c(cc3C21)OCO4` (stereo not drawn) [Chelidonine, reference compound], the “binding to purified ILK” value in [2] is recorded as “no detectable binding”.
As for `O=C(O)CCCc1ccc(N(CCCl)CCCl)cc1` [Chlorambucil, reference compound], the “Remaining Percentage (%)” value in [3] (PBS pH 7.4, 0 min) turned out to be 100.00%; in data set [3] (PBS pH 7.4, 30 min), 37.17%; in data set [3] (PBS pH 7.4, 60 min), 11.53%; in data set [3] (PBS pH 7.4, 120 min), 2.35%; in [3] (PBS pH 7.4, 180 min), 0.09%; in data set [3] (PBS pH 7.4, 240 min), 0.03%. For the same molecule, the “Remaining Percentage (%)” value is reported as 100.00% in data set [4] (0 min); 58.85% in data set [4] (30 min); 33.12% in data set [4] (60 min); 8.26% in [4] (120 min); 2.57% in data set [4] (180 min); 0.79% in data set [4] (240 min).
With `C#Cc1cc(Nc2ncnc3cc(OCCOC)ccc23)cc(OCCOC)c1` [Compound 1 New], the Kd stood at 12.7 µM in data set [5] (setting [17]) and 6.85 µM in data set [6] (setting [18]). Also, the “Binding Difference ILK (Kd)/EGFR (Kd)” value in data set [6] (Nanotemper) is given as 0.5414.
As to `C#Cc1cc(C#C)cc(Nc2ncnc3cc(OC)c(OC)cc23)c1` [Compound 4], in data set [2], the “Binding Difference ILK (Kd)/EGFR (Kd)” value came to 1.34 and the Kd worked out at 1.54 µM.
For the molecule `C#Cc1cc(Nc2ncnc3cc(OCCOC)c(OCCOC)cc23)cc(OCCOC)c1` [Compound 7], the Kd in data set [6] (setting [18]) is 2.44 µM.
As to `C#Cc1cc(Nc2ncnc3cc(OCCOC)c(OCCOC)cc23)cc(OCCOCC)c1` [Compound 8], the Kd in data set [5] (Nanotemper (Table 1), read-out: KD to EGFR) was roughly 8.84 µM; in data set [5] (setting [17]), 8.84 µM; in data set [6] (Nanotemper (Table 1), read-out: KD to ILK), roughly 0.92 µM; in data set [6] (setting [18]) it was 0.922 µM. Also, in data set [6] (Nanotemper), the “Binding Difference ILK (Kd)/EGFR (Kd)” value was 0.1043.
For `CNC(=O)CCc1cc(-c2ccc(-c3ccc(C(F)(F)F)cc3)cc2)n(-c2ccc(N3CCNCC3)cc2)n1` [Compound 22, reference compound], the “binding to purified ILK” value in [2] is reported as “no detectable binding”.
Turning to `C[C@@H]1CC[C@@]2(OC1)O[C@H]1[C@@H](O)[C@H]3[C@@H]4CC[C@H]5C[C@@H](O[C@@H]6O[C@H](CO)[C@H](O[C@@H]7O[C@H](CO)[C@@H](O)[C@H](O[C@@H]8OC[C@@H](O)[C@H](O)[C@H]8O)[C@H]7O[C@@H]7O[C@H](CO)[C@H](O)[C@H](O[C@@H]8O[C@H](CO)[C@@H](O)[C@H](O)[C@H]8O)[C@H]7O)[C@H](O)[C@H]6O)[C@H](O)C[C@]5(C)[C@H]4CC[C@]3(C)[C@H]1[C@@H]2C` [Digitonin], in [7], the “Fold change in IC50” value is recorded as 2.40. Also, the IC50 in data set [7] (setting [19]) was found to be 1.79 µM; in [7] (setting [20]), 4.3 µM.
As usually defined, the efflux ratio is a quotient of directional permeabilities that is used to spot active efflux. One may read the Papp A→B as the apparent permeability from the apical to the basolateral side of a cell layer. Read a high Papp A→B as ready permeation. As usually defined, the Papp B→A is the apparent permeability from the basolateral to the apical side of a cell layer. As to `C[C@H]1O[C@@H](O[C@H]2[C@@H](O)C[C@H](O[C@H]3[C@@H](O)C[C@H](O[C@H]4CC[C@@]5(C)[C@H](CC[C@@H]6[C@@H]5C[C@@H](O)[C@]5(C)[C@@H](C7=CC(=O)OC7)CC[C@]65O)C4)O[C@@H]3C)O[C@@H]2C)C[C@H](O)[C@@H]1O` [Digoxin], the recovery in data set [8] (setting [21]) stood at 87.9%. Moreover, the recovery in data set [8] (setting [22]) was determined as 96.5%. Also, in data set [8], the efflux ratio worked out at 27, the Papp A→B is 0.61 ×10⁻⁶ cm/s and the Papp B→A was found to be 16.6 ×10⁻⁶ cm/s.
As to `C#Cc1cc(Nc2ncnc3cc(OCCOC)c(OCCOC)cc23)ccc1C` [Erlotinib-4-methylphenyl analog (E4ME)], in [2], the “Binding Difference ILK (Kd)/EGFR (Kd)” value turned out to be 2.075 and the Kd is 1.55 µM.
For `CC(=O)N1CCN(c2ccc(OCC3COC(Cn4ccnc4)(c4ccc(Cl)cc4Cl)O3)cc2)CC1` (stereo not drawn) [Ketoconazole, reference compound], the “% Bound” value in data set [9] was 99.33%; in [10] it was 98.33%; in data set [11] it was 99.63%. For the same molecule, the entries for the “% Recovery” value in data set [9], in data set [10] and in data set [11] were 104.25%, 101.01% and 100.83%, respectively.
With `CC[C@H](C)C(=O)O[C@H]1C[C@@H](C)C=C2C=C[C@H](C)[C@H](CC[C@@H]3C[C@@H](O)CC(=O)O3)[C@H]21` [Mevinolin, reference compound], the “Remaining Percentage (%)” value in data set [12] (0 min) was determined as 100.00%; in [12] (15 min) it was 3.78%; in data set [12] (30 min) it was 0.00%; in [12] (45 min) it was 0.00%; in data set [12] (60 min) it was 0.00%; in [12] (120 min), 0.00%.
For the molecule `CCc1nn(CCCN2CCN(c3cccc(Cl)c3)CC2)c(=O)n1CCOc1ccccc1` [Nefazodone], the “Fold change in IC50” value in data set [7] stood at 11.33. Moreover, the IC50 came out at 6.82 µM in data set [7] (setting [19]) and 77.2 µM in [7] (setting [20]).
On to `COc1cc2nc(N3CCN(C(=O)c4ccco4)CC3)nc(N)c2cc1OC` [Prazosin], for which, in data set [8] (setting [21]), the recovery stood at 85.1%. Besides, the recovery in data set [8] (setting [22]) was 99%. Also, in [8], the efflux ratio is 2.41 and the Papp B→A came to 30.1 ×10⁻⁶ cm/s.
By solubility is commonly meant the concentration that dissolves in the medium under given conditions. In data set [13], `CC(=O)[C@H]1CC[C@H]2[C@@H]3CCC4=CC(=O)CC[C@]4(C)[C@H]3CC[C@]12C` [Progesterone, reference compound] registered a solubility of 13.9 µM (≈ 4.36 µg/mL).
Consider `CC(C)[N+](C)(CCOC(=O)C1c2ccccc2Oc2ccccc21)C(C)C` [Propantheline, reference compound], for which the “Remaining Percentage (%)” value was determined as 100.00% in [14] (0 min); 54.01% in [14] (15 min); 26.58% in data set [14] (30 min); 9.84% in [14] (45 min); 3.10% in [14] (60 min); 0.13% in data set [14] (120 min). Moreover, the “Remaining Percentage (%)” value in data set [15] (0 min) is on record as 100.00%; in [15] (15 min), 74.15%; in data set [15] (30 min), 64.03%; in data set [15] (45 min), 48.07%; in [15] (60 min), 37.61%; in data set [15] (120 min), 14.60%.
As for `CC(C)NCC(O)COc1cccc2ccccc12` (stereo not drawn) [Propranolol], the recovery in data set [8] (setting [21]) came to 60.8%. In addition, the recovery in data set [8] (setting [22]) stood at 80%. Further, in [8], the efflux ratio is 0.82, the Papp A→B was 19.5 ×10⁻⁶ cm/s and the apparent permeability from basolateral to apical (Papp B→A) is 15.9 ×10⁻⁶ cm/s.
For `CC1=NN(C(=O)CC(=O)Nc2ccc(C)cc2)C(=O)C1/N=N/c1cccc(C(=O)O)c1` (stereo not drawn) [QLT0267-like compound (QLT0267), reference compound], the “binding to purified ILK” value in [2] is on record as “no detectable binding”.
On to `C=C[C@H]1C[N@@]2CC[C@H]1C[C@@H]2[C@@H](O)c1ccnc2ccc(OC)cc12` [Quinidine, reference compound], for which the IC50 in [16] was 3.72 µM.
